This passage reports Ki results from US8815882B2, “Pyrazole aminopyrimidine derivatives as LRRK2 modulators” (Genentech, Inc., priority 2010, dated 2014).

For orientation: Ki means a measure of affinity in units of concentration, obtained from inhibition or displacement.

The target in the first test is T1, LRRK2 (Homo sapiens, UniProt Q5S007, G2019S).
T1 construct: purchased Invitrogen PV4882 (lot 567054A)
T1 sequence (Q5S007 whole entry G2019S): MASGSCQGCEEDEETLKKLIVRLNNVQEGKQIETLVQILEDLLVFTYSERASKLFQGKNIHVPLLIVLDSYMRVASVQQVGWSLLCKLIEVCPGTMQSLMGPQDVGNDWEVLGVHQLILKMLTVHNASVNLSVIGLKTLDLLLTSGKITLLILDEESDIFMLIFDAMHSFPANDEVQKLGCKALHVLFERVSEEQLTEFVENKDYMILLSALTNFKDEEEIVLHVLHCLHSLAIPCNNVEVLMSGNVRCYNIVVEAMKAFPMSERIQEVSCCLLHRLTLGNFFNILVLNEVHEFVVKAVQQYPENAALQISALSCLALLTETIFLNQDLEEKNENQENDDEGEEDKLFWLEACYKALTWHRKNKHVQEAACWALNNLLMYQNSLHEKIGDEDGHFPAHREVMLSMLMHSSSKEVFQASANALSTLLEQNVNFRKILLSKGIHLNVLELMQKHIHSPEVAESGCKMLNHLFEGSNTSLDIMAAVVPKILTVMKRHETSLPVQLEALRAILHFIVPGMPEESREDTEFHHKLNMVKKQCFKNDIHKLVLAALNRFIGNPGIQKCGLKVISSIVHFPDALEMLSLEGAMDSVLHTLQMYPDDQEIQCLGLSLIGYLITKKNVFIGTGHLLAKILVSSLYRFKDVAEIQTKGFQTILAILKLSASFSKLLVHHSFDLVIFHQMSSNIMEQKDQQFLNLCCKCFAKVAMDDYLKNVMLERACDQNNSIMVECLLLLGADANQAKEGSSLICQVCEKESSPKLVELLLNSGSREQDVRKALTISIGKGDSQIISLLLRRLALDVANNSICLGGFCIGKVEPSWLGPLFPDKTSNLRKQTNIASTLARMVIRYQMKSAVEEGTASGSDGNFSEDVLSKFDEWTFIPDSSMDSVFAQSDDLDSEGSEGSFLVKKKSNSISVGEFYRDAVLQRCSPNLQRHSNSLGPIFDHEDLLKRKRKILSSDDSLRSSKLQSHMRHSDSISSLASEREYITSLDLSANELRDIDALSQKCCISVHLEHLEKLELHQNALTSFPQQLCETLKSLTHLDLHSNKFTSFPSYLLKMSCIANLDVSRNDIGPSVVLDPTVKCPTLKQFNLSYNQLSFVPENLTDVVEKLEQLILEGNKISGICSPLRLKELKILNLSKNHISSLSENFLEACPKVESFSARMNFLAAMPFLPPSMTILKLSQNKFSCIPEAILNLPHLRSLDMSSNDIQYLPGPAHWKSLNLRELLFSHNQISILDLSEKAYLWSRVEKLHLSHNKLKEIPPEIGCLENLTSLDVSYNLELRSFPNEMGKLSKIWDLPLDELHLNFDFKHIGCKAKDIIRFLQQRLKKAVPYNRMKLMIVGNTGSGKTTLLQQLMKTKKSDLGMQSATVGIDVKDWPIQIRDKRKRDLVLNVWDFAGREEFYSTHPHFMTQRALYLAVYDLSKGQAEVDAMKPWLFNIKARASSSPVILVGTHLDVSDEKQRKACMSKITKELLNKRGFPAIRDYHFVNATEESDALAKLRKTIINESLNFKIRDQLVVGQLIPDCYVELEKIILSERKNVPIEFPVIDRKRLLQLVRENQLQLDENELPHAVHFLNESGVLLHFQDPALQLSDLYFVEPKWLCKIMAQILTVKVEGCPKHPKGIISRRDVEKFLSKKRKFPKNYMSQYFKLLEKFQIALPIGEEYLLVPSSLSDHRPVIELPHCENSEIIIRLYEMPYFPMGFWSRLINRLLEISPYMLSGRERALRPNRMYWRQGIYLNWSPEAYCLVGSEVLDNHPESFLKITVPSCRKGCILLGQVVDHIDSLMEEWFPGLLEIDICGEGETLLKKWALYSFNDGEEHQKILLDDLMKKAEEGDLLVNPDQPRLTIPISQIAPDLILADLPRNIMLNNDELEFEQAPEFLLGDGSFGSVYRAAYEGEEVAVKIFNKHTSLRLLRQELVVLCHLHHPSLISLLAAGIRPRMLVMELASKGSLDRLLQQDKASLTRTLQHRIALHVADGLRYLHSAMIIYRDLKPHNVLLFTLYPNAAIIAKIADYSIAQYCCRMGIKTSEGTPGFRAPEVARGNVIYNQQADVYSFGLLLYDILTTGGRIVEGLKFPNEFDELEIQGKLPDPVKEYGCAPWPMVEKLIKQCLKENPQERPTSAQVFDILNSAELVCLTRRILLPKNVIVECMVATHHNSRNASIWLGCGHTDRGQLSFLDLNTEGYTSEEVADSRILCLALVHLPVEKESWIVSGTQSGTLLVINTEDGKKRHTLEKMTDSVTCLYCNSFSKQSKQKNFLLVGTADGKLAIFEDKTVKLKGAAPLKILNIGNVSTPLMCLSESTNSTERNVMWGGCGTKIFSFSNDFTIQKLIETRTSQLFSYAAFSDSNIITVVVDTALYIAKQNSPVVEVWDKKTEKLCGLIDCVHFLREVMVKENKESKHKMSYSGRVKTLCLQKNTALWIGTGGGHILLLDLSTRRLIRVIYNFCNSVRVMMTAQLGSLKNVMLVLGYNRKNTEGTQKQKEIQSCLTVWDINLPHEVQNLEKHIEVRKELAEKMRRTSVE
The experiment in a line: In Vitro LRRK2 Assay (LabChip 3000, fluorescently-labeled peptide substrate, ATP). The format is biochemical. Particulars: Table 9; LRRK2 Ki (micromolar); read-out: LRRK2 Ki (KI). The gist of the method:
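Read-out was LabChip capillary electrophoresis, resolving phospho- from non-phospho-peptide by fluorescence intensity. The kinase reaction combined enzyme, ATP, test compound and labeled peptide (4 μM working dilution) for 2 h in darkness before stop solution. Values were reported as Ki, from a tight-binding model with Et, S and Km, or as IC50 or percent inhibition.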
Consider `CNc1nc(Nc2cnn(C(C)C)c2C)ncc1C#N` [Example 374, 2-(1-isopropyl-5-methyl-1H-pyrazol-4-ylamino)-4-(methylamino) pyrimidine-5-carbonitrile], for which the Ki stood at 15.8 nM.
On the same count and under the same terms, the value for `CNc1nc(Nc2cnn(CC(F)(F)F)c2C)ncc1C#N` [Example 358, 2-(5-methyl-1-(2,2,2-trifluoroethyl)-1H-pyrazol-4-ylamino)-4-(methylamino) pyrimidine-5-carbonitrile] was 32 nM.

Still in this test, the particulars now being: Table 10; LRRK2 Ki (micromolar); read-out: LRRK2 Ki (KI).
For `CNc1nc(Nc2cn(CC(C)(C)C#N)nc2C)ncc1C(F)(F)F` [Example 420, 2,2-dimethyl-3-(3-methyl-4-(4-(methylamino)-5-(trifluoromethyl)pyrimidin-2-ylamino)-1H-pyrazol-1-yl)propanenitrile], the Ki worked out at 2.8 nM.
Still for that read-out and setting: the result for `CCNC(=O)C1(n2cc(Nc3ncc(C(F)(F)F)c(NC)n3)c(C)n2)CCC1` [Example 428] reads 24 nM.

Staying with this test, now noted: read-out: LRRK2 Ki (KI), Table 7.
Consider `COc1nc(Nc2cnn(C(C)(C)C#N)c2C)ncc1Cl` [Example 72, 2-(4-(5-chloro-4-methoxy-pyrimidin-2-ylamino)-5-methyl-1H-pyrazol-1-yl)-2-methylpropane-nitrile], for which the Ki is 16 nM.
Same read-out and setting: the value for `CNc1nc(Nc2cnn(CC(F)(F)F)c2C)ncc1C(F)(F)F` [Example 58, N^4-methyl-N^2-(5-methyl-1-(2,2,2-trifluoroethyl)-1H-pyrazol-4-yl)-5-(trifluoromethyl) pyrimidine-2,4-diamine] was 3.6 nM.

The test is the same for the next values; noted with them: read-out: LRRK2 Ki (KI), Table 8.
In the case of `CNc1nc(Nc2cn(Cc3ccncn3)nc2C)ncc1C(F)(F)F` [Example 329, N4-Methyl-N2-(3-methyl-1-pyrimidin-4-ylmethyl-1H-pyrazol-4-yl)-5-trifluoromethyl-pyrimidine-2,4-diamine], the Ki came out at 5.2 nM.
In the case of `CNc1nc(Nc2c[nH]nc2C)ncc1C(F)(F)F` [Example 103, N4-methyl-N2-(3-methyl-1H-pyrazol-4-yl)-5-(trifluoromethyl) pyrimidine-2,4-diamine], the inhibition constant (Ki) was 9 nM.
Still for that read-out and setting: the result for `CCNc1nc(Nc2cn(C3CN(C4COC4)C3)nc2C)ncc1C(F)(F)F` [Example 182, N4-ethyl-N2-(3-methyl-1-(1-(oxetan-3-yl)azetidin-3-yl)-1H-pyrazol-4-yl)-5-(trifluoromethyl) pyrimidine-2,4-diamine] reads 1.5 nM; that for `CNc1nc(Nc2cnn(Cc3ccncn3)c2C)ncc1C(F)(F)F` [Example 323, N4-Methyl-N2-(5-methyl-1-pyrimidin-4-ylmethyl-1H-pyrazol-4-yl)-5-trifluoromethyl-pyrimidine-2,4-diamine], 2.2 nM.
The same measure, in the same setting: the result for `CNc1nc(Nc2cnn(Cc3ccn(C)n3)c2C)ncc1C(F)(F)F` [Example 324, N4-Methyl-N2-[5-methyl-1-(1-methyl-1H-pyrazol-3-ylmethyl)-1H-pyrazol-4-yl]-5-trifluoromethyl-pyrimidine-2,4-diamine] reads 0.6 nM.
With `CNc1nc(Nc2cn(CC(C)(C)O)nc2C(F)(F)F)ncc1C(F)(F)F` [Example 198, 2-methyl-1-(4-(4-(methylamino)-5-(trifluoromethyl)pyrimidin-2-ylamino)-3-(trifluoromethyl)-1H-pyrazol-1-yl)propan-2-ol], the inhibition constant Ki amounted to 27 nM.
Turning to `CNc1nc(Nc2cn(C(C)(C)c3ccn(C)n3)nc2C)ncc1C(F)(F)F` [Example 345, N4-methyl-N2-(3-methyl-1-(2-(1-methyl-1H-pyrazol-3-yl)propan-2-yl)-1H-pyrazol-4-yl)-5-(trifluoromethyl) pyrimidine-2,4-diamine], the Ki worked out at 115 nM.
Same read-out and setting: the result for `CNc1nc(Nc2cn(C3CCC(OC)C3)nc2C)ncc1C(F)(F)F` (stereo not drawn) [Example 193, N2-(1-(3-methoxycyclo-pentyl)-3-methyl-1H-pyrazol-4-yl)-N4-methyl-5-(trifluoromethyl) pyrimidine-2,4-diamine] reads 19 nM.
As for `CNc1nc(Nc2cnn([C@H](C)COC)c2C)ncc1C(F)(F)F` [Example 274, N2-[1-((R)-2-Methoxy-1-methyl-ethyl)-5-methyl-1H-pyrazol-4-yl]-N4-methyl-5-trifluoromethyl-pyrimidine-2,4-diamine], the inhibition constant (Ki) was determined as 18.5 nM.
The same measure, in the same setting: the result for `CCNc1nc(Nc2cn(C3CCN(C(=O)C(C)C)CC3)nc2C)ncc1C(F)(F)F` [Example 268, 1-{4-[4-(4-Ethylamino-5-trifluoromethyl-pyrimidin-2-ylamino)-3-methyl-pyrazol-1-yl]-piperidin-1-yl}-2-methyl-propan-1-one] reads 7.7 nM; that for `CNc1nc(Nc2cn(CC3CC3)nc2C)ncc1C(F)(F)F` [Example 166, N2-(1-(cyclopropyl-methyl)-3-methyl-1H-pyrazol-4-yl)-N4-methyl-5-(trifluoromethyl) pyrimidine-2,4-diamine], 4.5 nM.
In the case of `CNc1nc(Nc2cn(-c3ccc(C(=O)N(C)C)cc3)nc2C)ncc1C(F)(F)F` [Example 164, N,N-dimethyl-4-(3-methyl-4-(4-(methylamino)-5-(trifluoromethyl)pyrimidin-2-ylamino)-1H-pyrazol-1-yl)benzamide], the Ki is 5.7 nM.
Still for that read-out and setting: the result for `CCNc1nc(Nc2cnn(S(=O)(=O)C(C)C)c2C)ncc1C(F)(F)F` [Example 279, N4-Ethyl-N2-[5-methyl-1-(propane-2-sulfonyl)-1H-pyrazol-4-yl]-5-trifluoromethyl-pyrimidine-2,4-diamine] reads 4.7 nM.
On the same count and under the same terms, the result for `CCNc1nc(Nc2cn(-c3ccc(C(=O)N(C)C)cc3)nc2C)ncc1C(F)(F)F` [Example 263, 4-[4-(4-Ethylamino-5-trifluoromethyl-pyrimidin-2-ylamino)-3-methyl-pyrazol-1-yl]-N,N-dimethyl-benzamide] reads 1.8 nM; that for `CNc1nc(Nc2cnn(C3CCOCC3)c2Cl)ncc1C(F)(F)F` [Example 226, N2-(5-chloro-1-(tetrahydro-2H-pyran-4-yl)-1H-pyrazol-4-yl)-N4-methyl-5-(trifluoromethyl) pyrimidine-2,4-diamine], 0.7 nM.
